pKi: −log10 of the molar value.

The experiment deals with T1, human factor Xa (Homo sapiens, UniProt P00742).
T1 construct: 25 μl human factor Xa (Enzyme Research Laboratories, Inc; South Bend, Ind.); purchased Enzyme Research Laboratories, Inc; South Bend, Ind
T1 sequence (P00742 235-488 limits assumed): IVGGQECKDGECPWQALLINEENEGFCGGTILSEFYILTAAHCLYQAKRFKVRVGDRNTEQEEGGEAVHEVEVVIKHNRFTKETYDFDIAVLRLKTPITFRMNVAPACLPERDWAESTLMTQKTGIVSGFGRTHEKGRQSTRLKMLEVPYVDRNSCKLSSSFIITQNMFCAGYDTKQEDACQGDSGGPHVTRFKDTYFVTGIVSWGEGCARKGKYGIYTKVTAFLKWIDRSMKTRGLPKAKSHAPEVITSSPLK
T1 sequence (P00742 41-179 partner limits assumed): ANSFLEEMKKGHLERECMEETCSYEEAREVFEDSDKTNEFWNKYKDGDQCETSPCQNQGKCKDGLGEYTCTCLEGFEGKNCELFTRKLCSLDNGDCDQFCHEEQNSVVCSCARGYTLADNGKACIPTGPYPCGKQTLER
In words: Factor Xa assay (chromogenic, purified enzyme). It counts as biochemical. Particulars: inhibition constant for factor Xa; chromogenic substrate S-2765 140 μM, enzyme 0.5 nM, 25° C., pH 7.8; Ki=IC50/{1+(substrate concentration/Km)}; read-out: Ki(FXa). The method in brief:
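Human factor Xa (0.5 nM) pre-incubated 10 min with compound in TBS-PEG/DMSO, then S-2765 (140 μM) added; initial hydrolysis rate read at 405 nm, 25°C. IC50 by linear regression of relative rate vs log concentration; Ki = IC50/(1+[S]/Km).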
Take `CC(C)N1CCC(NC(=O)c2cc(C(=O)N3CCC(N4CCCC4=O)CC3)nn2Cc2cc(-c3ccc(Cl)s3)on2)CC1` [Example 81, 2-[5-(5-Chloro-thiophen-2-yl)-isoxazol-3-ylmethyl]-5-[4-(2-oxo-pyrrolidin-1-yl)-piperidine-1-carbonyl]-2H-pyrazole-3-carboxylic acid (1-isopropyl-piperidin-4-yl)-amide]: the pKi is 6.85.
`CC(C)N1CCC(CNC(=O)c2cc(-c3cccs3)nn2Cc2cc(-c3ccc(Cl)s3)on2)CC1` [Example 17, 2-[5-(5-Chloro-thiophen-2-yl)-isoxazol-3-ylmethyl]-5-thiophen-2-yl-2H-pyrazole-3-carboxylic acid (1-isopropyl-piperidin-4-ylmethyl)-amide]: the pKi was 6.81.
As to `CCCc1cc(C(=O)NC2CCN(C(C)C)CC2)n(Cc2cc(-c3ccc(Cl)s3)on2)n1` [Example 8, 2-[5-(5-Chloro-thiophen-2-yl)-isoxazol-3-ylmethyl]-5-propyl-2H-pyrazole-3-carboxylic acid (1-isopropyl-piperidin-4-yl)-amide], the pKi was 7.27.
As for `COCCN(CCOC)C(=O)c1cc(C(=O)NC2CCN(C(C)C)CC2)n(Cc2cc(-c3ccc(Cl)s3)on2)n1` [Example 31, 1-[5-(5-Chloro-thiophen-2-yl)-isoxazol-3-ylmethyl]-1H-pyrazole-3,5-dicarboxylic acid 3-[bis-(2-methoxy-ethyl)-amide] 5-[(1-isopropyl-piperidin-4-yl)-amide]], the pKi is 6.74.
`COC(=O)c1cc(C(=O)NC2CCN(C(C)C)CC2)n(CC(=O)Nc2ccc(Cl)cn2)n1` [Example 50, 1-[(5-Chloro-pyridin-2-ylcarbamoyl)-methyl]-5-(1-isopropyl-piperidin-4-ylcarbamoyl)-1H-pyrazole-3-carboxylic acid methyl ester]: the pKi was 8.00.
With `CC(C)N1CCC(NC(=O)c2cc(C(=O)NS(C)(=O)=O)nn2Cc2cc(-c3ccc(Cl)s3)on2)CC1` [Example 82, 2-[5-(5-Chloro-thiophen-2-yl)-isoxazol-3-ylmethyl]-5-methanesulfonylaminocarbonyl-2H-pyrazole-3-carboxylic acid (1-isopropyl-piperidin-4-yl)-amide] the figure was 6.74; with `CC(C)N1CCC(NC(=O)c2cc(C(=O)NCC(=O)O)nn2Cc2cc(-c3ccc(Cl)s3)on2)CC1` [Example 28, {[1-[5-(5-Chloro-thiophen-2-yl)-isoxazol-3-ylmethyl]-5-(1-isopropyl-piperidin-4-ylcarbamoyl)-1H-pyrazole-3-carbonyl]-amino}-acetic acid], 7.09; with `CC(C)N1CCC(NC(=O)c2cc(C(=O)NCCS(N)(=O)=O)nn2Cc2cc(-c3ccc(Cl)s3)on2)CC1` [Example 44, 1-[5-(5-Chloro-thiophen-2-yl)-isoxazol-3-ylmethyl]-1H-pyrazole-3,5-dicarboxylic acid 5-[(1-isopropyl-piperidin-4-yl)-amide] 3-[(2-sulfamoyl-ethyl)-amide]], 7.34.
In the case of `COCCOC(=O)c1cc(C(=O)NC2CCN(C(C)C)CC2)n(CC(=O)Nc2ccc(Cl)cn2)n1` [Example 106, 1-[(5-Chloro-pyridin-2-ylcarbamoyl)-methyl]-5-(1-isopropyl-piperidin-4-ylcarbamoyl)-1H-pyrazole-3-carboxylic acid 2-methoxy-ethyl ester], the pKi was 7.80.
With `CC(C)N1CCC(NC(=O)c2cc(C(=O)N3CC(O)C3)nn2Cc2cc(-c3ccc(Cl)s3)on2)CC1` [Example 83, 2-[5-(5-Chloro-thiophen-2-yl)-isoxazol-3-ylmethyl]-5-(3-hydroxy-azetidine-1-carbonyl)-2H-pyrazole-3-carboxylic acid (1-isopropyl-piperidin-4-yl)-amide] the figure was 6.98; with `CC(C)N1CCC(NC(=O)c2cc(C(=O)N(C)CC(=O)O)nn2Cc2cc(-c3ccc(Cl)s3)on2)CC1` [Example 33, {[1-[5-(5-Chloro-thiophen-2-yl)-isoxazol-3-ylmethyl]-5-(1-isopropyl-piperidin-4-ylcarbamoyl)-1H-pyrazole-3-carbonyl]-methyl-amino}-acetic acid], 7.09; with `CC(C)N1CCC(NC(=O)c2cc(C(=O)N3CCC3)nn2Cc2cc(-c3ccc(Cl)s3)on2)CC1` [Example 77, 5-(Azetidine-1-carbonyl)-2-[5-(5-chloro-thiophen-2-yl)-isoxazol-3-ylmethyl]-2H-pyrazole-3-carboxylic acid (1-isopropyl-piperidin-4-yl)-amide], 7.20.

As a reminder, the pKi is the Ki on a negative log10 scale, so that one unit is a factor of ten.

For the origin of these results see patent US20080306056A1, “PYRAZOLE-DERIVATIVES AS FACTOR Xa INHIBITORS” (SANOFI-AVENTIS DEUTSCHLAND GMBH, priority 2002, published 2008).
